This is an account of results in patent publication US20110274657A1, “OXADIAZOLE DERIVATIVES AS S1P1 RECEPTOR ANTAGONISTS” (priority 2009, published 2011).

Each structure is given as a SMILES string.

The EC50 is the concentration at which the effect is half-maximal. Read a low EC50 as greater potency.

Chain of S1P1 receptors (P21453 whole entry): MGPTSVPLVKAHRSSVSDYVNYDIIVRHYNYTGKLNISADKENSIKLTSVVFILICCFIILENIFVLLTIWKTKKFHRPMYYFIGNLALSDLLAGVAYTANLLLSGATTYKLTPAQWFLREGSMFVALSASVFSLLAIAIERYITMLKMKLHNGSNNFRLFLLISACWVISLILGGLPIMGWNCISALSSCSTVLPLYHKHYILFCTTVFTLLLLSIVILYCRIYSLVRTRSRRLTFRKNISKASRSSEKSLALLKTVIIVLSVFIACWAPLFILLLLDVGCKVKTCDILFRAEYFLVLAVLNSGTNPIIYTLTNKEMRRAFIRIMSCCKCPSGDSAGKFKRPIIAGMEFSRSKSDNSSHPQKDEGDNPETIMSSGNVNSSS

This assay addresses S1P1 receptors (Homo sapiens, UniProt P21453). Put plainly: 35S-GTPyS binding assay. It is filed as biochemical. The following applies: 35S-GTPyS binding to membranes, 90 min at room temperature; 10 μM S1P used as 100% maximum efficacy. The procedure:
The effect of the compounds was measured using a 35S-GTPyS binding assay. Briefly, membranes were incubated in a buffer containing 20 mM HEPES pH 7.4, 100 mM NaCl, 10 mM MgCl2, 10 μM GDP, 50 μg/mL saponin and 0.2% fatty acid-free BSA at various concentrations (0.1 nM-10 μM) and 0.1 nM 35S-GTPyS. 10 μM S1P was used as 100% maximum efficacy. The assay was incubated for 90 min at room temperature with gentle mixing, and terminated by filtrating the reaction mixture through GF/C filter plates using the Manifold Filtration System. The filters were immediately washed with sodium phosphate pH 7.4 buffer. After drying the filter plates scintillant liquid were added to each well and 35S-GTPyS binding was measured on a Trilux Scintillation Counter.
Molecule `Cc1cc(-c2noc(-c3cncc4c3CCC(C)(C)C4)n2)cc(C)c1CCNCC(F)F` [Example 24, N-(4-(5-(7,7-dimethyl-5,6,7,8-tetrahydroisoquinolin-4-yl)-1,2,4-oxadiazol-3-yl)-2,6-dimethylphenethyl)-2,2-difluoroethanamine] came in with an EC50 of 19.4 nM.

As to `Cc1cc(-c2noc(-c3cncc4c3CCC(C)(C)C4)n2)cc(C)c1CCN1CC(C(=O)O)C1` [Example 25, 1-(4-(5-(7,7-dimethyl-5,6,7,8-tetrahydroisoquinolin-4-yl)-1,2,4-oxadiazol-3-yl)-2,6-dimethylphenethyl)azetidine-3-carboxylic acid], the midpoint of the response, the EC50, lay at 36.7 nM. For `CCc1ncc(-c2nc(-c3cc(C)c(CCN)c(C)c3)no2)c2c1CC(C)(C)CC2` [Example 7, 2-(4-(5-(1-ethyl-7,7-dimethyl-5,6,7,8-tetrahydroisoquinolin-4-yl)-1,2,4-oxadiazol-3-yl)-2,6-dimethylphenyl)ethanamine] the value was 10.8 nM; for `CCc1ncc(-c2nc(-c3cc(C)c(CCC(N)=O)c(C)c3)no2)c2c1CC(C)(C)CC2` [Example 6, 3-(4-(5-(1-ethyl-7,7-dimethyl-5,6,7,8-tetrahydroisoquinolin-4-yl)-1,2,4-oxadiazol-3-yl)-2,6-dimethylphenyl)propanamide], 29 nM; for `Cc1cc(-c2noc(-c3cnc(C4CC4)c4c3CCC(C)(C)C4)n2)cc(C)c1CCC(=O)O` [Example 8, 3-(4-(5-(1-cyclopropyl-7,7-dimethyl-5,6,7,8-tetrahydroisoquinolin-4-yl)-1,2,4-oxadiazol-3-yl)-2,6-dimethylphenyl)propanoic acid], 28.5 nM.

Regarding `CNc1ncc(-c2nc(-c3cc(C)c(OCCN)c(C)c3)no2)c2c1CC(C)(C)CC2` [Example 36, 4-{3-[4-(2-aminoethoxy)-3,5-dimethylphenyl]-1,2,4-oxadiazol-5-yl}-N,7,7-trimethyl-5,6,7,8-tetrahydroisoquinolin-1-amine], the response was half-maximal at 16.4 nM (EC50). In turn, `Cc1cc(-c2noc(-c3cnc(N(C)C)c4c3CCC(C)(C)C4)n2)cc(C)c1CC(O)CO` (centres unmarked) [Example 37, 3-(4-{5-[1-(dimethylamino)-7,7-dimethyl-5,6,7,8-tetrahydroisoquinolin-4-yl]-1,2,4-oxadiazol-3-yl}-2,6-dimethylphenyl)propane-1,2-diol] displayed a concentration for a half-maximal effect (EC50) of 21.7 nM. The molecule `Cc1cc(-c2noc(-c3cncc4c3CCC(C)(C)C4)n2)cc(C)c1CC(O)CO` (centres unmarked) [Example 22, 3-(4-(5-(7,7-dimethyl-5,6,7,8-tetrahydroisoquinolin-4-yl)-1,2,4-oxadiazol-3-yl)-2,6-dimethylphenyl)propane-1,2-diol] gave an EC50 of 19 nM.
